In US20220235065A1 (Epizyme, Inc., priority 2016, published 2022) one finds IC50 data, which are given here for 59 molecules.

Counter-ions that a name gives are not always drawn.

The target in this assay is T1, recombinant purified human EHMT2 913-1193 (Homo sapiens, UniProt Q96KQ7).
T1 construct: Recombinant purified human EHMT2 913-1193 (55 μM) synthesized by Viva was used for all experiments; purchased Viva
T1 sequence (Q96KQ7 913-1193): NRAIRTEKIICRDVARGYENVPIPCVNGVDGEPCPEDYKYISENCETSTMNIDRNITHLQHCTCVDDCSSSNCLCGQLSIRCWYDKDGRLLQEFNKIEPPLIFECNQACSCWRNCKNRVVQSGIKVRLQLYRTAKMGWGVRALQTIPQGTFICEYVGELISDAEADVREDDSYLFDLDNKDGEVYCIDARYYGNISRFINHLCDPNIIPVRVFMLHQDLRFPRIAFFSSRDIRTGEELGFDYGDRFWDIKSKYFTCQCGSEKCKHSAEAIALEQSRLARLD
The assay is described as follows: EHMT2 enzyme assay on histone peptide substrate (3H-SAM Flashplate). Type of assay: biochemical. The note with it: read-out: EHMT2 PEP (IC50 μM). An outline of the steps:
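Compounds (10-point 3-fold series, top 50 μM final, 2% DMSO) preincubated 30 min with 0.031 nM EHMT2 in 20 mM Bicine pH 7.5, 1 mM TCEP; reaction started with 3H-SAM and biotinylated H3 1-15 peptide, both at Km, run 60 min at room temperature. Flashplate capture; IC50 from four-parameter fit, triplicates.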

Consider `CNc1cc(C)nc(Nc2ccc(OC)c(-c3cc(C4CC4)on3)c2)n1` [Compound 13], for which the IC50 (usually the point on the concentration scale where inhibition reaches its midpoint) was in the range of 1 to 10 µM.
Next, `CNc1cc(C)nc(Nc2ccc(OC)c(-n3cc(C4CC4)cn3)c2)n1` [Compound 14, 2-N-[3-(4-cyclopropyl-1H-pyrazol-1-yl)-4-methoxyphenyl]-4-N,6-dimethylpyrimidine-2,4-diamine]: 1 to 10 µM; `CNc1cc(C)nc(Nc2ccc(OC)c(-n3cccn3)c2)n1` [Compound 15, 2-N-[4-methoxy-3-(1H-pyrazol-1-yl)phenyl]-4-N,6-dimethylpyrimidine-2,4-diamine; trifluoroacetic acid]: > 10 µM.
Turning to `CNc1cc(C)nc(Nc2cnc(OC)c(-n3ncc4c3CCNC4)c2)n1` [Compound 19], the IC50 lay within 1 to 10 µM.
Regarding `CNc1cc(C)nc(Nc2ccc(OC)c(-c3nnc4n3CCNC4)c2)n1` [Compound 21], the IC50 is > 10 µM.
As to `CNc1cc(C)nc(Nc2ccc(OC)c(-n3cc4c(n3)CNCC4)c2)n1` [Compound 22, 2-N-(4-methoxy-3-[2H,4H,5H,6H,7H-pyrazolo[3,4-c]pyridin-2-yl]phenyl)-4-N,6-dimethylpyrimidine-2,4-diamine hydrochloride], the IC50 is > 10 µM.
In the case of `CNc1cc(C)nc(Nc2ccc(OC)c(-n3cc(CN)cn3)c2)n1` [Compound 23, 2-N-[3-[4-(aminomethyl)-1H-pyrazol-1-yl]-4-methoxyphenyl]-4-N,6-dimethylpyrimidine-2,4-diamine; trifluoroacetic acid], the IC50 was < 0.1 µM.
`CNc1cc(C)nc(Nc2ccc(OC)c(-n3nccc3CN)c2)n1` [Compound 24]: the IC50 is 1 to 10 µM.
Next, `CNc1cc(C)nc(Nc2ccc(OC)c(-n3ncc4c3CCCC4)c2)n1` [Compound 26, 2-N-[4-methoxy-3-(4,5,6,7-tetrahydro-1H-indazol-1-yl)phenyl]-4-N,6-dimethylpyrimidine-2,4-diamine trifluoroacetic acid]: > 10 µM; `CNc1nc(Nc2ccc(OC)c(-n3cc4c(n3)CCNC4)c2)nc(C)c1F` [Compound 27, 5-fluoro-2-N-(4-methoxy-3-[2H,4H,5H,6H,7H-pyrazolo[4,3-c]pyridin-2-yl]phenyl)-4-N,6-dimethylpyrimidine-2,4-diamine trifluoroacetic acid]: 0.1 to 1 µM.
For `CNc1nc(Nc2ccc(OC)c(-n3ncc4c3CCNC4)c2)nc(C)c1F` [Compound 28, 5-fluoro-2-N-(4-methoxy-3-[1H,4H,5H,6H,7H-pyrazolo[4,3-c]pyridin-1-yl]phenyl)-4-N,6-dimethylpyrimidine-2,4-diamine trifluoroacetic acid], the IC50 is 1 to 10 µM.
Take `CNc1cc(C)nc(Nc2ccc(OC)c(-c3c(C)nc4n3CCNC4)c2)n1` [Compound 30]: the IC50 is > 10 µM.
As for `CNc1cc(C)nc(Nc2ccc(OC)c(-c3nnc4n3CCN(C)C4)c2)n1` [Compound 31], the IC50 was > 10 µM.
`CNc1cc(C)nc(Nc2ccc(OC)c(-n3ncc4c3CCCN4)c2)n1` [Compound 32]: the IC50 was > 10 µM.
As for `CNc1cc(C)nc(Nc2ccc(OC)c(-c3cccc4[nH]ccc34)c2)n1` [Compound 33, 2-N-[3-(1H-indol-4-yl)-4-methoxyphenyl]-4-N,6-dimethylpyrimidine-2,4-diamine hydrochloride], the IC50 was > 10 µM.
On to `CNc1cc(C)nc(Nc2ccc(OC)c(-n3ncc4cnccc43)c2)n1` [Compound 35, 2-N-(4-methoxy-3-[1H-pyrazolo[4,3-c]pyridin-1-yl]phenyl)-4-N,6-dimethylpyrimidine-2,4-diamine; trifluoroacetic acid], for which the IC50 lay within 1 to 10 µM.
As to `CNc1cc(C)nc(Nc2ccc(OC)c(-n3ncc4ccncc43)c2)n1` [Compound 36], the IC50 was > 10 µM.
On to `CNc1cc(C)nc(Nc2ccc(OC)c(-c3cccc4[nH]ncc34)c2)n1` [Compound 37, 2-N-[3-(1H-indazol-4-yl)-4-methoxyphenyl]-4-N,6-dimethylpyrimidine-2,4-diamine; trifluoroacetic acid], for which the IC50 was > 10 µM.
Consider `CNc1cc(C)nc(Nc2ccc(OC)c(-c3nc4cnccn4n3)c2)n1` [Compound 38], for which the IC50 is > 10 µM.
Turning to `CNc1cc(C)nc(Nc2ccc(OC)c(-c3c(C)nc4cnccn34)c2)n1` [Compound 39], the IC50 is > 10 µM.
In the case of `CCc1ccc(Nc2nc(C)cc(NC)n2)cc1C(=O)Nc1cccnc1` [Compound 244], the IC50 is > 10 µM.
As for `CNc1cc(C)nc(Nc2ccc(Cl)c(C(=O)Nc3ccnnc3)c2)n1` [Compound 245], the IC50 was > 10 µM.
Consider `CNc1cc(C)nc(Nc2ccc(Cl)c(C(=O)Nc3nccs3)c2)n1` [Compound 246], for which the IC50 was 1 to 10 µM.
For `Cc1cc(NC2CCNCC2)ncc1-c1cc2[nH]ccc2cn1` [Compound 247], the IC50 fell in the range of 1 to 10 µM.
`CNc1cc(C)nc(Nc2ccc(Cl)c(C(=O)Nc3cnccn3)c2)n1` [Compound 251]: the IC50 fell in the range of 1 to 10 µM.
On to `CNc1cc(C)nc(Nc2ccc(Cl)c(-c3cc4[nH]ccc4cn3)c2)n1` [Compound 255], for which the IC50 is < 0.1 µM.
For the molecule `CNc1cc(C)nc(Nc2ccc(C)c(-c3cc4[nH]ccc4cn3)c2)n1` [Compound 256], the IC50 was < 0.1 µM.
Consider `CNc1nc2cc(-c3cc4[nH]ccc4cn3)c(C)cc2n1C` [Compound 257], for which the IC50 lay within 1 to 10 µM.
With `CNc1cc(C)nc(Nc2ccc(Cl)c(C(=O)Nc3ncccn3)c2)n1` [Compound 258], the IC50 was in the range of 1 to 10 µM.
For the molecule `CNc1cc(C)nc(Nc2ccc(Cl)c(C(=O)Nc3ccncn3)c2)n1` [Compound 259], the IC50 is > 10 µM.
`CNc1cc(C)nc(Nc2ccc(Cl)c(-c3cc4c(cn3)CC(=O)N4)c2)n1` [Compound 260]: the IC50 was in the range of 1 to 10 µM.
Take `CNCc1cnn(-c2cc(Nc3nc(C)cc(NC)n3)ccc2Cl)c1` [Compound 262, N2-(4-chloro-3-(4-((methylamino)methyl)-1H-pyrazol-1-yl)phenyl)-N4,6-dimethylpyrimidine-2,4-diamine]: the IC50 is < 0.1 µM.
Turning to `CCc1ccc(Nc2nc(C)cc(NC)n2)cc1-c1cc2ccncc2[nH]1` [Compound 269], the IC50 is < 0.1 µM.
With `CNc1cc(C)nc(Nc2ccc(C)c(-c3[nH]c4cnccc4c3C#N)c2)n1` [Compound 271], the IC50 lay in the range of 1 to 10 µM.
`CNc1cc(C)nc(Nc2ccc(C)c(-c3cc4ccccc4[nH]3)c2)n1` [Compound 274]: the IC50 was > 10 µM.
As for `CCNc1c[nH]c(=O)c(-c2cc(Nc3nc(C)cc(NC)n3)ccc2C)c1` [Compound 276], the IC50 was in the range of 1 to 10 µM.
As to `CNc1nc2cc(-c3cc4ccncc4[nH]3)c(C)cc2n1C` [Compound 278], the IC50 was < 0.1 µM.
For `CNc1cc(C)nc(Nc2ccc(C)c(-c3nc4ccncc4[nH]3)c2)n1` [Compound 279], the IC50 is < 0.1 µM.
As for `CNc1cc(C)nc(Nc2ccc(C)c(C(=O)Nc3cscn3)c2)n1` [Compound 280], the IC50 was > 10 µM.
Next, `CNc1cc(C)nc(Nc2ccc(C)c(-n3cc4cnccc4n3)c2)n1` [Compound 282]: < 0.1 µM; `CNCc1cnn(-c2cc(Nc3nc(C)cc(NC)n3)ccc2OC)c1` [Compound 285]: < 0.1 µM; `CNCc1cnn(-c2cc(Nc3nc(C)cc(NC)n3)ccc2C)c1` [Compound 286, N4,6-dimethyl-N2-(4-methyl-3-(4-((methylamino)methyl)-1H-pyrazol-1-yl)phenyl)pyrimidine-2,4-diamine]: < 0.1 µM.
For `CNc1cc(C)nc(Nc2ccc(C)c(C(=O)Nc3cnccn3)c2)n1` [Compound 287], the IC50 was 1 to 10 µM.
Next, `CNc1cc(C)nc(Nc2ccc(OC)c(-c3[nH]c4cnccc4c3C#N)c2)n1` [Compound 291]: 1 to 10 µM.
Consider `CNc1cc(C)nc(Nc2ccc(OC)c(-c3cc4[nH]ccc4c(C#N)n3)c2)n1` [Compound 292], for which the IC50 lay in the range of 0.1 to 1 µM.
Consider `CNc1cc(C)nc(Nc2ccc(OC)c(-c3cc4[nH]ccc4c(CNC(C)=O)n3)c2)n1` [Compound 293], for which the IC50 was 0.1 to 1 µM.
On to `CNC1=Nc2cc(-c3cnc4cc[nH]c4c3)c(OC)cc2C12CCC2` [Compound 294], for which the IC50 is < 0.1 µM.
As for `CNc1nc2cc(-c3cnc4cc[nH]c4c3)c(OC)cc2n1C` [Compound 295], the IC50 was 1 to 10 µM.
Next, `CNc1cc(C)nc(Nc2ccc(OC)c(-c3cc4[nH]ccc4c(CN)n3)c2)n1` [Compound 296]: 0.1 to 1 µM; `CNc1cc(C)nc(Nc2ccc(C)c(C(=O)Nc3cn(C)nn3)c2)n1` [Compound 299]: > 10 µM; `CNC1=Nc2cc(-c3cc4[nH]ccc4nc3C)c(OC)cc2C12CCC2` [Compound 300]: 0.1 to 1 µM.
As to `CNc1cc(C)nc(Nc2ccc(C)c(C(=O)Nc3cn(C)cn3)c2)n1` [Compound 302], the IC50 was > 10 µM.
Next, `CNc1nc2cc(-c3[nH]c4cnccc4c3C)c(OC)cc2n1C` [Compound 304]: 0.1 to 1 µM.
Take `COc1cc(NC2CCNC2)ccc1-c1[nH]c2cnccc2c1C` (centres unmarked) [Compound 305]: the IC50 lay in the range of 0.1 to 1 µM.
Next, `CNc1cc(C)nc(Nc2ccc(OC)c(-c3nccc(NC)n3)c2)n1` [Compound 306]: 1 to 10 µM; `CNCc1cnn(-c2c(F)ccc(Nc3nc(C)cc(NC)n3)c2F)c1` [Compound 307]: < 0.1 µM; `CNC1=Nc2cc(-c3cc4[nH]ccc4c(C(N)=O)n3)c(OC)cc2C12CCC2` [Compound 308]: 1 to 10 µM.
Turning to `COc1cc2c(cc1-c1cc3[nH]ccc3cn1)N=C(NCC(N)=O)C21CCC1` [Compound 309], the IC50 was 1 to 10 µM.
On to `COc1cc(NC2CCNCC2)ccc1-c1[nH]c2cnccc2c1C` [Compound 310], for which the IC50 is 1 to 10 µM.
